From ChEMBL document CHEMBL1201862, “PubChem BioAssay data set” (2004)
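Assay format: 96-well plates, 48-hour exposure. GI50 is the concentration that inhibits growth by half.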 Calls of active or inactive are those of the source. Cut-off read from the data, not from the text of the source: active = GI50 up to about 1.1 µM and inactive = higher.

Tests used:
Assay in all cases: NCI anticancer screen, dose series, 48 h
NCI-H226 = test system: NCI-H226
HL-60 = test system: HL-60
SNB-75 = test system: SNB-75
SW-620 = test system: SW-620
IGROV-1 = test system: IGROV-1
SF-268 = test system: SF-268
OVCAR-5 = test system: OVCAR-5
NCI/ADR-RES = test system: NCI/ADR-RES
HT-29 = test system: HT-29
COLO 205 = test system: COLO 205
DU-145 = test system: DU-145
HOP-62 = test system: HOP-62
U-251 = test system: U-251
HCT-116 = test system: HCT-116
RPMI-8226 = test system: RPMI-8226
SF-295 = test system: SF-295
SK-OV-3 = test system: SK-OV-3
EKVX = test system: EKVX
NCI-H522 = test system: NCI-H522
SK-MEL-2 = test system: SK-MEL-2
MDA-MB-231 = test system: MDA-MB-231
OVCAR-3 = test system: OVCAR-3
OVCAR-8 = test system: OVCAR-8
SK-MEL-5 = test system: SK-MEL-5
MCF7 = test system: MCF7
786-0 = test system: 786-0
M14 = test system: M14
K562 = test system: K562
ACHN = test system: ACHN
SNB-19 = test system: SNB-19
HCC 2998 = test system: HCC 2998
A549 = test system: A549
MDA-MB-435 = test system: MDA-MB-435
SF-539 = test system: SF-539
CAKI-1 = test system: CAKI-1
SN12C = test system: SN12C
HOP-92 = test system: HOP-92
A498 = test system: A498
NCI-H460 = test system: NCI-H460
BT-549 = test system: BT-549
LOX IMVI = test system: LOX IMVI
SR = test system: SR
HCT-15 = test system: HCT-15
TK-10 = test system: TK-10
UACC-62 = test system: UACC-62
UO-31 = test system: UO-31
MOLT-4 = test system: MOLT-4
Hs-578T = test system: Hs-578T
T47D = test system: T47D
SK-MEL-28 = test system: SK-MEL-28
UACC-257 = test system: UACC-257
OVCAR-4 = test system: OVCAR-4
PC-3 = test system: PC-3
KM12 = test system: KM12

COC(=O)CN(CC1O[C@@H]2OC(C)(C)O[C@@H]2C1N=[N+]=[N-])C(=O)OCc1ccccc1 (some centres undefined)
GI50 (NCI-H226): > 100 µM (inactive)
GI50 (HL-60): 69.3 µM (inactive)
GI50 (SNB-75): > 100 µM (inactive)
GI50 (SW-620): > 100 µM (inactive)
GI50 (IGROV-1): > 100 µM (inactive)
GI50 (SF-268): > 100 µM (inactive)
GI50 (OVCAR-5): > 100 µM (inactive)
GI50 (NCI/ADR-RES): 30.9 µM (inactive)
GI50 (HT-29): > 100 µM (inactive)
GI50 (COLO 205): > 100 µM (inactive)
GI50 (DU-145): > 100 µM (inactive)
GI50 (HOP-62): > 100 µM (inactive)
GI50 (U-251): > 100 µM (inactive)
GI50 (HCT-116): > 100 µM (inactive)
GI50 (RPMI-8226): > 100 µM (inactive)
GI50 (SF-295): > 100 µM (inactive)
GI50 (SK-OV-3): > 100 µM (inactive)
GI50 (EKVX): > 100 µM (inactive)
GI50 (NCI-H522): > 100 µM (inactive)
GI50 (SK-MEL-2): > 100 µM (inactive)
GI50 (MDA-MB-231): > 100 µM (inactive)
GI50 (OVCAR-3): > 100 µM (inactive)
GI50 (OVCAR-8): > 100 µM (inactive)
GI50 (SK-MEL-5): > 100 µM (inactive)
GI50 (MCF7): > 100 µM (inactive)
GI50 (786-0): > 100 µM (inactive)
GI50 (M14): > 100 µM (inactive)
GI50 (K562): 57 µM (inactive)
GI50 (ACHN): > 100 µM (inactive)
GI50 (SNB-19): > 100 µM (inactive)
GI50 (HCC 2998): > 100 µM (inactive)
GI50 (A549): > 100 µM (inactive)
GI50 (MDA-MB-435): > 100 µM (inactive)
GI50 (SF-539): > 100 µM (inactive)
GI50 (CAKI-1): > 100 µM (inactive)
GI50 (SN12C): > 100 µM (inactive)
GI50 (HOP-92): > 100 µM (inactive)
GI50 (A498): > 100 µM (inactive)
GI50 (NCI-H460): > 100 µM (inactive)
GI50 (BT-549): > 100 µM (inactive)
GI50 (LOX IMVI): > 100 µM (inactive)
GI50 (SR): > 100 µM (inactive)
GI50 (HCT-15): > 100 µM
GI50 (TK-10): > 100 µM (inactive)
GI50 (UACC-62): > 100 µM (inactive)
GI50 (UO-31): > 100 µM (inactive)
GI50 (MOLT-4): 51.4 µM (inactive)
GI50 (Hs-578T): 16 µM (inactive)
GI50 (T47D): > 100 µM (inactive)
GI50 (SK-MEL-28): > 100 µM (inactive)
GI50 (UACC-257): > 100 µM (inactive)
GI50 (OVCAR-4): > 100 µM (inactive)
GI50 (PC-3): > 100 µM (inactive)
GI50 (KM12): > 100 µM (inactive)
